The numbers were not newly measured in patent US20060275294A1, “METHOD OF PREVENTION AND TREATMENT OF AGING, AGE-RELATED DISORDERS AND/OR AGE-RELATED MANIFESTATIONS INCLUDING ATHEROSCLEROSIS, PERIPHERAL VASCULAR DISEASE, CORONARY ARTERY DISEASE, OSTEOPOROSIS, ARTHRITIS, TYPE 2 DIABETES, DEMENTIA, ALZHEIMERS DISEASE AND CANCER” (priority 2002, published 2006), which cites them from elsewhere.

The test system of one data set is Jurkat T cells. Particulars: cited from earlier work.
For another data set, the system named is Rat VSMC. Particulars: 50 microM, IL-6 stimulated; cited from earlier work.
The next data set concerns STAT1 and STAT3. Particulars: cited from earlier work.
Data set [1] relates to human endothelial cells (EC). Particulars: 100 ug/ml for DHA, EPA; 24 h supernatants, ELISA; cited from earlier work. In general terms: In an ELISA, binding on a coated surface is turned into a signal by an enzyme label.
Data set [2] deals with rat vascular smooth muscle cells. Particulars: cited from earlier work.
In the next data set the test system is Yorkshire swine. The conditions noted are these: 20 mg/kg/day, 5 months, cited from earlier work.
The subject of data set [3] is Male Wistar rats. The conditions noted are these: rats; cited from earlier work.
The test system of data set [4] is cultured human astrocytes. Particulars: cited from earlier work.
In data set [5] the test system is three human pancreatic cancer cell types. The conditions noted are these: cited from earlier work.
Data set [6] has as its system Male Wistar rats. Particulars: administered to every diet group; cited from earlier work.
The next data set deals with JB6 cell. The conditions noted are these: cited from earlier work.
For data set [7], the target named is fAbeta(1-40) and fAbeta(1-42) (Homo sapiens, UniProt P05067). The conditions noted are these: cited from earlier work; for fAbeta formation from Abeta(1-40) and Abeta(1-42): in vitro.
fAbeta(1-40) and fAbeta(1-42), sequence (P05067 672-711 limits assumed): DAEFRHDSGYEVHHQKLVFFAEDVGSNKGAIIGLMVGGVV
In the next data set the test system is myeloma cell lines. Particulars: cited from earlier work.
Another data set concerns STAT3 and ERK1/2. Particulars: cited from earlier work.
A further data set concerns MM cells. Particulars: cited from earlier work.
The subject of the next data set is IL-6. Particulars: in vitro; cited from earlier work.
The test system of data set [8] is subjects with type 2 diabetes associated with osteopenia. The conditions noted are these: 200 mg/day for 2 weeks every 3 months, 1 yr; cited from earlier work.
Data set [9] concerns IL-1 beta, IL-6, and TNF-alpha. Particulars: cited from earlier work.
In data set [10] the test system is human microvascular endothelial cells (EC). Particulars: cited from earlier work.
Data set [11] deals with rats with adjuvant arthritic chronic pain. Particulars: cited from earlier work.
In data set [12] the test system is human prostate carcinoma PC-3 cell line. Particulars: cited from earlier work.
The subject of data set [13] is aortic strips isolated from virgin and late pregnant Sprague-Dawley rats. Particulars: 10^-5 M, endothelium-intact strips, cited from earlier work.
The target of another data set is IKKbeta (Homo sapiens, UniProt O14920). Particulars: cited from earlier work.
IKKbeta, sequence (O14920 whole entry, species assumed): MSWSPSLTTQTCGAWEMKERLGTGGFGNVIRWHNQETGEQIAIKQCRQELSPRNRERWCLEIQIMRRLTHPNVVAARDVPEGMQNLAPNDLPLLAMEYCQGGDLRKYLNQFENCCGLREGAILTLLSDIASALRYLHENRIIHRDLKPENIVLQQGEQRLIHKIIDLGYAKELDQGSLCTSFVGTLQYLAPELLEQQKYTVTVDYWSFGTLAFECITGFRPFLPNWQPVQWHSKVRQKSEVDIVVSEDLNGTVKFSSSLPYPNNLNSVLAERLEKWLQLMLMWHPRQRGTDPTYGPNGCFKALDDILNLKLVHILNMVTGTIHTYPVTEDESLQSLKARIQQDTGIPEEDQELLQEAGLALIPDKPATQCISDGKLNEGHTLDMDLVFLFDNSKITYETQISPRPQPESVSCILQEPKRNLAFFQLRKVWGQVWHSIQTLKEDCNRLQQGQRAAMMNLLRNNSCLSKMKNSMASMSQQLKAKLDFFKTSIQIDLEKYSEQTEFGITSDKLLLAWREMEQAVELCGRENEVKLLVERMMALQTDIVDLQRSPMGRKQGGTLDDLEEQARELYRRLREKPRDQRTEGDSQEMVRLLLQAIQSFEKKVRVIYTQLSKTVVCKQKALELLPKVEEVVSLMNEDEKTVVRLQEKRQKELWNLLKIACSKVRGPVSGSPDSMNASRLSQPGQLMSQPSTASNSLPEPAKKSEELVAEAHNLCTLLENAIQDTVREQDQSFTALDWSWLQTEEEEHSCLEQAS
Another data set deals with Wistar rats. The conditions noted are these: cited from earlier work.
For data set [14], the system named is rat primary astrocytes, microglia, and macrophages. Particulars: cited from earlier work.
Another data set relates to mice. Particulars: mouse, in vivo; cited from earlier work.
The next data set deals with rats. Particulars: synthetic diet for 21 days; cited from earlier work.
Data set [15] has as its system Primary adipocytes from pig subcutaneous adipose tissue. The conditions noted are these: cited from earlier work.

Where two headings read alike, the source gives them in different places.

Take `Oc1cc(O)c2c(c1)OC(c1ccc(O)c(O)c1)C(O)C2` (single isomer, unassigned; (+)) [CT, (+)-catechin]: the “PMA-triggered increase in cell oxidants” value with Jurkat T cells (1.7-17.2 microM, 24 h preincubation) is “prevented”. Moreover, in the data set with Jurkat T cells (pretreatment), the “PMA-induced NF-kappaB binding activity and transactivation of IL-2” value is on record as “decreased”.

As for `N#C/C(=C/c1ccc(O)c(O)c1)C(=O)NCc1ccccc1` [AG490], in the data set with Rat VSMC, the DNA synthesis entry is “near complete inhibition”; the “STAT 3 activation and MCP-1 production” value is “partially inhibited”. In addition, the “CuLDL-induced enhancement of STAT1 and STAT3 Tyr-phosphorylation and DNA-binding activity” value in the data set with STAT1 and STAT3 is reported as “markedly prevented”.

With `CCCCC/C=C\C/C=C\C/C=C\C/C=C\CCCC(=O)O` [Arachidonic acid], in data set [1], the “production of IL-6 by unstimulated or stimulated EC” value was “ineffective”.

As to `CCOc1nc2cccc(C(=O)O)c2n1Cc1ccc(-c2ccccc2-c2nnn[nH]2)cc1` [CV11974], the “expression of IL-6 mRNA induced by Ang II” value in data set [2] is “completely blocked”.

Turning to `CC(O)(P(=O)(O)O)P(=O)(O)O` [EHDP, ethane-1-hydroxy-1,1-diphosphonate], in the data set with Yorkshire swine (vs HL diet only), the “extent of lesions, ratio of intima to media” value was “significantly less”. For the same molecule, in the data set with Yorkshire swine, the lesion calcium result is reported as “significantly less” and the “ratio of lipid-rich necrotic debris area to area of media” value was “significantly smaller”.

On to `Oc1cc(O)c2c(c1)O[C@H](c1cc(O)c(O)c(O)c1)[C@H](O)C2` [Epigallocatechin], for which the “myocardial ischemia reperfusion injury” value in the data set on Male Wistar rats [3] is on record as “attenuates”.

For `CN(C)CCCn1cc(C2=C(c3c[nH]c4ccccc34)C(=O)NC2=O)c2ccccc21` [GF109203X], in [4], the “PDBu-increased secretion of APPalpha” value is “blocked”.

As to `Cc1ccc(NC(=O)c2ccc(CN3CCN(C)CC3)cc2)cc1Nc1nccc(-c2cccnc2)n1` [Gleevec], in [5], the inhibition of proliferation result is “ineffective”.

Consider `COc1ccc2c(c1)c(CC(=O)O)c(C)n2C(=O)c1ccc(Cl)cc1` [Indomethacin], for which, in the data set with Male Wistar rats [6], the “inflammatory process in adjuvant arthritis” value was “strong inhibitory effect”.

As to `O=P(O)(O)O[C@H]1[C@H](OP(=O)(O)O)[C@@H](OP(=O)(O)O)[C@H](OP(=O)(O)O)[C@@H](OP(=O)(O)O)[C@H]1OP(=O)(O)O` [InsP6, inositol hexaphosphate], the cell transformation result with JB6 cell is on record as “inhibited”.

For `CC(Cc1ccc(O)c(O)c1)C(C)Cc1ccc(O)c(O)c1` (stereo not drawn) [NDGA, Nordihydroguaiaretic acid], the “fAbeta formation from Abeta(1-40) and Abeta(1-42)” value in [7] is “inhibit”.

As to `CCCC(=O)O[C@@H]1[C@@H](C)[C@@]2(O)[C@@H](C=C(CO)C[C@]3(O)C(=O)C(C)=C[C@@H]23)[C@@H]2C(C)(C)[C@]12OC(=O)CCC` [PDBu, Phorbol 12, 13-dibutyrate], the “increase of secretion of APPalpha over control” value in [4] was 2-3 fold.

Regarding `S=C=NCCc1ccccc1` [PEITC, phenethyl isothiocyanate], the cell transformation result in the data set on JB6 cell was “inhibited cell transformation”.

As for `Cn1cncc1[C@@](N)(c1ccc(Cl)cc1)c1ccc2c(c1)c(-c1cccc(Cl)c1)cc(=O)n2C` [R115777], the “growth of three myeloma cell lines” value in the data set on myeloma cell lines was “significant and dose-dependent growth inhibition”. The apoptosis entry in the data set with myeloma cell lines (myeloma cells) was “significant and time-dependent apoptosis”. Moreover, the “phosphorylation of STAT3 and ERK1/2 induced by IL-6” value is “partially blocked” in the data set on STAT3 and ERK1/2 (10 and 5 microM); “totally blocked” with STAT3 and ERK1/2 (15 microM).

`O=C(OC[C@H]1O[C@@H](OC(=O)c2cc(O)c(O)c(OC(=O)c3cc(O)c(O)c(O)c3)c2)[C@H](OC(=O)c2cc(O)c(O)c(OC(=O)c3cc(O)c(O)c(O)c3)c2)[C@@H](OC(=O)c2cc(O)c(O)c(OC(=O)c3cc(O)c(O)c(O)c3)c2)[C@@H]1OC(=O)c1cc(O)c(O)c(OC(=O)c2cc(O)c(O)c(O)c2)c1)c1cc(O)c(O)c(OC(=O)c2cc(O)c(O)c(O)c2)c1` [TA, tannic acid]: in data set [7], the “fAbeta formation from Abeta(1-40) and Abeta(1-42)” value was “dose-dependently inhibited”. Besides, the EC50 in data set [7] (pH 7.5, 37 degrees C, read-out: effective concentrations (EC50) for formation, extension and destabilization of fAbetas) is less than 100 nM.

In the case of `COc1cc(/C=C/C(=O)CC(=O)/C=C/c2ccc(O)c(OC)c2)ccc1O` [curcumin, diferuloylmethane], in the data set with MM cells (ex vivo treatment of patient MM cells), the “adhesion to bone marrow stromal cells, cytokine secretion, viability of cells” value is recorded as “decrease”. For the same molecule, in the data set on MM cells (human MM cells), the “expression of NF-kappaB-regulated gene products incl. interleukin-6” value is “down-regulated”.

Regarding `C[C@]12CC[C@@H]3c4ccc(O)cc4CC[C@H]3[C@@H]1CC[C@@H]2O` [estradiol, 17beta-estradiol], in the data set on IL-6, the “IL-6 protein and mRNA production” value is on record as “inhibits”.

As for `CC(O)(P(=O)(O)O)P(=O)(O)O` [etidronate], the “change in intima-media thickness (mean±SE)” value in [8] is recorded as −0.038±0.011 mm.

As to `CO[C@H]1[C@@H](OC)C[C@H](C)[C@@H](OC)C2=CC(=O)C=C(NC(=O)/C(C)=C/C=C\[C@H](OC)[C@@H](OC(N)=O)/C(C)=C/[C@@H]1C)C2=O` [herbimycin A], in [9] (1.7 microM), the “LPS-induced increase in IL-1 beta, IL-6, and TNF-alpha mRNA levels” value is on record as “completely or more than 80% blocked”. Also, in data set [9], the “LPS activation of NF-kappa B” value is recorded as “reduced”; the “LPS-induced IL-6 protein synthesis and IL-6 bioactivity” value is “reduced to baseline levels”. In addition, in data set [5] (three cell lines, read-out: mean IC(50) proliferation), the IC50 is 1710 nM.

In the case of `O=P([O-])(O)C(NC1CCCCCC1)P(=O)([O-])O.[Na+].[Na+]` [incadronate disodium], the “activation of NF-kappaB and AP-1 and up-regulation of VEGF mRNA” value in data set [10] (AGE-exposed EC) was “significantly prevented”. The “AGE-induced increase in DNA synthesis and tube formation” value in [10] is listed as “completely inhibit”.

For the molecule `CC(C)Oc1ccc2c(=O)c(-c3ccccc3)coc2c1` [ipriflavone, 7-isopropoxyisoflavone], the analgesic effects result in data set [11] (100 mg/kg/day oral, 2 weeks after start) is given as “Analgesic effects were observed”. For the same molecule, the “synovitis, periosteal new bone formation and bone destruction” value in data set [11] (3 weeks, females) is reported as “improved”.

On to `C=C(C)[C@@H]1CC=C(C(=O)O)CC1` [perillic acid], for which the “IL-6- and OM-mediated effects (growth, resistance to etoposide and cisplatin)” value in data set [12] is reported as “inhibited”.

For `CNC[C@H](O)c1cccc(O)c1` [phenylephrine], the “increase in active stress” value in data set [13] (pregnant rats) is 4.2±0.3 ×104 N/m2; in data set [13] (virgin rats), 5.1±0.3 ×104 N/m2.

For `Oc1ccc(C=Cc2cc(O)cc(O)c2)cc1` [resveratrol], at IKKbeta, the “activation of IKKbeta” value is reported as “inhibit or suppress”. The cell transformation result in the data set on JB6 cell is “inhibited cell transformation”.

As for `C[C@@H]1O[C@@H](OC[C@H]2O[C@@H](Oc3c(-c4ccc(O)c(O)c4)oc4cc(O)cc(O)c4c3=O)[C@H](O)[C@@H](O)[C@@H]2O)[C@H](O)[C@H](O)[C@H]1O` [rutin, quercetin-3-O-glucose rhamnose], in the data set with Wistar rats (OVX+R rats, HPLC), the “mean plasma concentration of active metabolites (quercetin and isorhamnetin)” value was 9.46 ± 1 µM. Further, in the data set with Wistar rats (rat, in vivo), the uterotrophic activity result is listed as “devoid of any uterotrophic activity”.

Regarding `O=C([O-])Cc1ccccc1.[Na+]` [sodium phenylacetate], the “LPS-mediated activation of NF kappa B” value in [14] (astrocytes) is “Inhibition”. For the same molecule, in [14] (rat primary astrocytes, microglia, macrophages), the “LPS-induced expression of TNF-alpha, IL-1beta, and IL-6” value was “inhibited”. Besides, the “LPS and cytokine-mediated production of NO and expression of iNOS” value in data set [14] (rat primary astrocytes) is recorded as “inhibit”.

As to `C=C(CC[C@]12O[C@H](C(=O)O)[C@@](O)(C(=O)O)[C@](C(=O)O)(O1)[C@H](OC(=O)/C=C/[C@@H](C)C[C@@H](C)CC)[C@H]2O)[C@@H](OC(C)=O)[C@H](C)Cc1ccccc1` [squalestatin], the anti-inflammatory effect result in the data set on mice is listed as “did not have any anti-inflammatory effect”.

Lavendustin: the inhibition of proliferation result in data set [5] is listed as “ineffective”.

On to vitamin E, for which, in the data set on rats, the “endotoxin induced IL-6 concentration” value was “significantly lower”.

B1: adiponectin: adiponectin (protein, UniProt Q15848 19-244, looked up)
Adiponectin: ETTTQGPGVLLPLPKGACTGWMAGIPGHPGHNGAPGRDGRDGTPGEKGEKGDPGLIGPKGDIGETGVPGAEGPRGFPGIQGRKGEPGEGAYVYRSAFSVGLETYVTIPNMPIRFTKIFYNQQNHYDGSTGKFHCNIPGLYYFAYHITVYMKDVKVSLFKKDKAMLFTYDQYQENNVDQASGSVLLHLEVGDQVWLQVYGEGERNGLYADNDNDSTFTGFLLYHDTN
With B1, in [15] (30 microg/ml, LPS 10 microg/ml), the “NF-kappaB activation and induction of IL-6 expression by LPS” value is “suppressed”. Moreover, in [15], the “PPARgamma2 mRNA” value is listed as “upregulation”.
